Results: article PMC6273079, “Purification of Flavonoids from Chinese Bayberry (Morella rubra Sieb. et Zucc.) Fruit Extracts and α-Glucosidase Inhibitory Activities of Different Fractionations” (Molecules, 2016)

How the values were obtained:
[1] = ABTS radical scavenging activity; conditions: samples from BQ pulp; 6 min, 734 nm; mean ± SD, n = 3
Experimental: ABTS assay was carried out using a spectrophotometer as reported. The ABTS radical cation was generated by reacting 7 mmol/L ABTS with 2.45 mmol/L potassium persulfate, and the mixture was allowed to stand in the dark at room temperature for 16 h before use. Before analysis, the ABTS solution was diluted with ethanol to an absorbance of 0.70 ± 0.05 at a wavelength of 734 nm. The absorbance at 734 nm was recorded for 6 min after mixing of 0.1 mL of the tested samples dissolved in ethanol with 3.9 mL of ABTS solution. The radical scavenging activity was calculated as the Equation (1) above.

[2] = DPPH radical scavenging activity; conditions: samples from BQ pulp; 1 h reaction, 515 nm; mean ± SD, n = 3
Experimental: DPPH radical scavenging activity was measured according to Brand-Williams, Cuvelier, and Berset with modifications. The reaction for scavenging DPPH radical was carried out by adding 2 μL sample to 198 μL 25 μg/mL DPPH solution at room temperature. Absorbance at 515 nm before (A0) and after (A1) the reaction (1 h) was recorded using a micro-plate reader (BioTech, Synergy H1, Winooski, VT, USA). The radical scavenging activity was calculated as: Scavenging rate (%) = (A0 − A1)/A0 × 100 (1)

Row | IC50 of ABTS radical scavenging activity [1] [µg/mL] | IC50 of DPPH scavenging activity [2] [µg/mL] | Compound
1 | 2.09 ± 0.01 | 2.43 | O=c1c(O[C@@H]2O[C@H](CO)[C@H](O)[C@H](O)[C@H]2O)c(-c2ccc(O)c(O)c2)oc2cc(O)cc(O)c12 [Q3Gal, quercetin-3-O-galactoside]
2 | 3.24 ± 0.02 | 2.81 | C[C@@H]1O[C@@H](Oc2c(-c3cc(O)c(O)c(O)c3)oc3cc(O)cc(O)c3c2=O)[C@H](O)[C@H](O)[C@H]1O [M3R, myricetin-3-O-rhamnoside]
3 | 4.19 ± 0.16 | 3.22 | OC[C@H]1O[C@@H](Oc2cc3c(O)cc(O)cc3[o+]c2-c2ccc(O)c(O)c2)[C@H](O)[C@@H](O)[C@@H]1O [C3G, cyanidin-3-O-glucoside]

Row | Compound | IC50 of ABTS radical scavenging activity [1] [µg/mL] | IC50 of DPPH scavenging activity [2] [µg/mL]
4 | quercetin-3-O-rhamnoside [Q3R] | 2.28 ± 0.05 | 2.55
